From patent publication US9708286B2, “Ingenol-3-acylates III and ingenol-3-carbamates” (LEO Laboratories Limited, priority 2010, dated 2017)
Like-named read-outs stand apart in the source and are kept apart here.

Key:
Assay type in all cases: cell-based
[1] = system: PMN's (polymorphonuclear leukocytes); assay: Neutrophil oxidative burst; settings: normalized to 5×10^−7 M PEP0005
Experimental: PMN's (polymorphonuclear leukocytes) were isolated and purified from fresh buffy coats by sequential sedimentation, density centrifugation and lysis of contaminating erythrocytes. Buffy coats were incubated with 2% methocel for 30-45 min to differentially sediment red blood cells. The leukocyte-rich supernatant was transferred to lymphoprep tubes to remove mononuclear cells by density centrifugation (400×g, 30 min). The pellet was resuspended and any remaining erythrocytes lysed using 0.2% NaCl for 30 sec before restoring isotonicity by the addition of 1.2% NaCl. This step was repeated until the cell pellet appears relatively free of red blood cells. Cells were resuspended in DPBS (Dulbecco's Phosphate Buffered Saline) (w.o. Ca^2+, Mg^2+) and the concentration adjusted to 1.4×10^6 cells/ml in HBSS (Hanks Balanced Salt solution) (w Ca^2+, Mg^2±) containing 0.1% BSA (Bovine Serum Albumin) and 5 mM glucose just prior to assay initiation. Titrated reference and test compounds were pre-mixed with HE (Hydroethidine) (10 μM final assay concentration) before addition to 96-well plates containing 2.5×10^5 cells. Following 40 min incubation at RT, changes in the respiratory burst was estimated by measuring fluorescence at 579 nm (excitation: 485 nm) using an Envision plate reader.
Test compound titration curves were fitted to a four-parameter sigmoidal curve after normalizing the effect of the test compound to the effect of the positive control (5×10^−7 M PEP0005). Rel EC50 denotes the concentration of test compound producing an effect that is midway between the fitted top and bottom. Abs EC50 is the concentration of test compound that provokes a response corresponding to 50% of the maximal effect associated with the positive control (5×10^−7 M PEP0005).

[2] = system: Primary human epidermal keratinocytes, HeKa; assay: HeKa cytokine release (IL-8); settings: read-out: HeKa cytokine release (IL-8) Rel EC50 range
Experimental: Primary human epidermal keratinocytes, HeKa, were seeded (10.000 cells/well) in 96-well plates the day before the assay. Test compounds were diluted in DMSO (dimethyl sulfoxide) and further diluted in assay medium and pipetted into wells of 96 well-plates containing HeKa cells. The plates were incubated for 6 h at 37° C. in humidified air with 5% CO2. Plates were centrifuged briefly to spin down cells at 4° C., the supernatant was removed and analysed by Meso Scale Discovery (MSD) 4-spot cytokine assay (Pro-inflammatory II Ultra Sensitive kit, MSD, MD, USA). The MSD assay employs a sandwich immunoassay format where capture antibodies are coated in a patterned array on the bottom of the wells of a 4-Spot-Multi-MSD plate. Standard samples were incubated in the MULTI-SPOT plates as well, and the cytokine (IL-8) binds to its corresponding capture antibody spot. The cytokine level was quantitated on a SECTOR™ Imager using a cytokine-specific Detection Antibody labelled with MSD SULFO-TAG™ reagent.
Test compound titration curves were fitted to a four-parameter sigmoidal curve after normalizing the effect of the test compound to the effect of the positive control (1.5×10^−7 M PEP0005). Rel EC50 denotes the concentration of test compound producing an effect that is midway between the fitted top and bottom.

[3] = system: HeLa cells; assay: Necrosis assay; settings: Homo sapiens, HeLa, 0.5 h, read-out: HeLa necrosis EC50 range
Experimental: HeLa cells (ATCC CCL-002) were grown in minimal essential medium (Invitrogen catalog no. 42360) containing 10% fetal bovine serum, 100 IU/ml penicillin and 100 μg/ml streptomycin. 4,000-6,000 cells were seeded into 96-well black ViewPlates-plates, clear bottom, (Perkin Elmer) in 100 μl medium and incubated overnight. Compounds were dissolved and pre-diluted in DMSO in 96-well polypropylene plates (Greiner) in a concentration range of 15 μM to 600 μM. At the time of the experiment cell plates were placed on heating blocks at 37° C., medium was removed and 40 μl fresh, pre-warmed medium was added per well. Cells were incubated for 15 min before addition of compounds. In parallel, 3 μl of compounds were diluted with 197 μl growth medium on a Tecan freedom-EVO pipetting station using 250 μl/s pipetting speed, in order to ensure effective mixing of the highly concentrated compound solutions with the aqueous phase. These pre-dilution plates were then equilibrated on heating blocks at 37° C. for 10 min. 80 μl pre-diluted compound were transferred manually to the corresponding wells containing HeLa cells yielding compound concentrations of 10 μM to 400 μM. Control conditions were 1% DMSO in growth medium (100% viability) and 400 μM ingenol mebutate in growth medium (0% viability). Plates were incubated on the heating blocks at 37° C. for 30 min. At the end of the incubation 10 μl PrestoBlue reagent (Invitrogen) were added to each well, plates were sealed with black seal, followed by incubation at 37° C. for 10 min with gentle shaking (150 rpm). Subsequently, plates were placed at room temperature for 20-30 min. Plates were read immediately after on an Envision Fluorescence reader (Perkin Elmer) with excitation at 535 nm and emission at 630 nm. Test compound titration curves were fitted to a four-parameter sigmoidal curve after normalizing the effect of the test compound to the effect of the positive control (4 10^−4 M PEP0005/ingenol mebutate). AbsEC50 denotes the concentration of test compound producing 50% effect.

[4] = Leukocyte, 40 min, read-out: Neutrophil oxidative burst Rel EC50 range, PMN from buffy coats, 40 min at RT, hydroethidine fluorescence

Compound | EC50 [1, 4] | EC50 ([2]; Homo sapiens, HEKa, 6 h) | EC50 ([1]; read-out: Neutrophil oxidative burst Rel EC50 range, PMN from buffy coats, 40 min at RT, hydroethidine fluorescence) | EC50 ([2]; HeKa cells, 6 h at 37° C., IL-8 by MSD assay, normalized to 1.5×10^−7 M PEP0005) | EC50 [3]
CC1=C[C@]23C(=O)[C@@H](C=C(CO)[C@@H](O)[C@]2(O)[C@H]1OC(=O)N1CCCC1C(F)(F)F)[C@H]1[C@@H](C[C@H]3C)C1(C)C (single isomer, unassigned; isomer a) [Compound 740, Ingenol 3-(2-trifluoromethyl-pyrrolidine-1-carboxylate) (ISOMER A)] | < 20 nM | 20 to 100 nM | – | – | –
CC1=C[C@]23C(=O)[C@@H](C=C(CO)[C@@H](O)[C@]2(O)[C@H]1OC(=O)N1CCCC1C(F)(F)F)[C@H]1[C@@H](C[C@H]3C)C1(C)C (single isomer, unassigned; isomer b) [Compound 741, Ingenol 3-(2-trifluoromethyl-pyrrolidine-1-carboxylate) (ISOMER B)] | – | – | 20 to 100 nM | 20 to 100 nM | > 350000 nM
CC1=C[C@]23C(=O)[C@@H](C=C(CO)[C@@H](O)[C@]2(O)[C@H]1OC(=O)c1c(-c2c(F)cccc2Cl)noc1C)[C@H]1[C@@H](C[C@H]3C)C1(C)C [Compound 501, Ingenol 3-(5-methyl-3-(2-chloro-6-fluoro-phenyl)-isoxazole-4-carboxylate)] | 20 to 100 nM | < 20 nM | – | – | < 150000 nM
CC1=C[C@]23C(=O)[C@@H](C=C(CO)[C@@H](O)[C@]2(O)[C@H]1OC(=O)c1c(-c2ccccc2)noc1C)[C@H]1[C@@H](C[C@H]3C)C1(C)C [Compound 502, Ingenol 3-(5-methyl-3-phenyl-isoxazole-4-carboxylate)] | < 20 nM | < 20 nM | – | – | < 150000 nM
CC1=C[C@]23C(=O)[C@@H](C=C(CO)[C@@H](O)[C@]2(O)[C@H]1OC(=O)c1cnnn1-c1ccccc1)[C@H]1[C@@H](C[C@H]3C)C1(C)C [Compound 504, Ingenol 3-(3-phenyltriazole-4-carboxylate)] | 20 to 100 nM | 20 to 100 nM | – | – | –
CC1=C[C@]23C(=O)[C@@H](C=C(CO)[C@@H](O)[C@]2(O)[C@H]1OC(=O)c1cn(C)c2ccccc12)[C@H]1[C@@H](C[C@H]3C)C1(C)C [Compound 509, Ingenol 3-(1-methylindole-3-carboxylate)] | < 20 nM | < 20 nM | – | – | –
CC1=C[C@]23C(=O)[C@@H](C=C(CO)[C@@H](O)[C@]2(O)[C@H]1OC(=O)c1c(C(C)(C)C)noc1C)[C@H]1[C@@H](C[C@H]3C)C1(C)C [Compound 549, Ingenol 3-(5-methyl-3-tert-butyl-isoxazole-4-carboxylate)] | < 20 nM | < 20 nM | – | – | –
CC1=C[C@]23C(=O)[C@@H](C=C(CO)[C@@H](O)[C@]2(O)[C@H]1OC(=O)c1c(C)nn(C(C)(C)C)c1C)[C@H]1[C@@H](C[C@H]3C)C1(C)C [Compound 551, Ingenol 3-(1-tert-butyl-3,5-dimethyl-pyrazole-4-carboxylate)] | < 20 nM | < 20 nM | – | – | –
CC1=C[C@]23C(=O)[C@@H](C=C(CO)[C@@H](O)[C@]2(O)[C@H]1OC(=O)c1c(C)cc(=O)oc1C)[C@H]1[C@@H](C[C@H]3C)C1(C)C [Compound 573, Ingenol 3-(2,4-dimethyl-6-oxo-pyran-3-carboxylate)] | 20 to 100 nM | 20 to 100 nM | – | – | –
CC1=C[C@]23C(=O)[C@@H](C=C(CO)[C@@H](O)[C@]2(O)[C@H]1OC(=O)N(C)C)[C@H]1[C@@H](C[C@H]3C)C1(C)C [Compound 702, Ingenol 3-(N,N-dimethyl-carbamate)] | 20 to 100 nM | > 100 nM | – | – | –
CC1=C[C@]23C(=O)[C@@H](C=C(CO)[C@@H](O)[C@]2(O)[C@H]1OC(=O)N1CCOCC1)[C@H]1[C@@H](C[C@H]3C)C1(C)C [Compound 703, Ingenol 3-(morpholine-4-carboxylate)] | 20 to 100 nM | > 100 nM | – | – | –
CC1=C[C@]23C(=O)[C@@H](C=C(CO)[C@@H](O)[C@]2(O)[C@H]1OC(=O)N1CCCC1)[C@H]1[C@@H](C[C@H]3C)C1(C)C [Compound 704, Ingenol 3-(pyrrolidine-1-carboxylate)] | 20 to 100 nM | > 100 nM | – | – | –
CC1=C[C@]23C(=O)[C@@H](C=C(CO)[C@@H](O)[C@]2(O)[C@H]1OC(=O)N1CCCCC1)[C@H]1[C@@H](C[C@H]3C)C1(C)C [Compound 707, Ingenol 3-(piperidine-1-carboxylate)] | < 20 nM | 20 to 100 nM | – | – | –
CC1=C[C@]23C(=O)[C@@H](C=C(CO)[C@@H](O)[C@]2(O)[C@H]1OC(=O)N(C)Cc1ccccc1)[C@H]1[C@@H](C[C@H]3C)C1(C)C [Compound 708, Ingenol 3-(N-benzyl-N-methyl-carbamate)] | 20 to 100 nM | < 20 nM | – | – | –
CC1=C[C@]23C(=O)[C@@H](C=C(CO)[C@@H](O)[C@]2(O)[C@H]1OC(=O)NC1CCCCC1)[C@H]1[C@@H](C[C@H]3C)C1(C)C [Compound 710, Ingenol 3-(N-cyclohexyl-carbamate)] | < 20 nM | 20 to 100 nM | – | – | –
CC1=C[C@]23C(=O)[C@@H](C=C(CO)[C@@H](O)[C@]2(O)[C@H]1OC(=O)Nc1ccccc1)[C@H]1[C@@H](C[C@H]3C)C1(C)C [Compound 711, Ingenol 3-(N-phenyl-carbamate)] | 20 to 100 nM | < 20 nM | – | – | –
CC1=C[C@]23C(=O)[C@@H](C=C(CO)[C@@H](O)[C@]2(O)[C@H]1OC(=O)NC1CCc2ccccc21)[C@H]1[C@@H](C[C@H]3C)C1(C)C (some centres unmarked) [Compound 712, Ingenol 3-(N-(indan-1-yl)-carbamate)] | 20 to 100 nM | 20 to 100 nM | – | – | –
CC1=C[C@]23C(=O)[C@@H](C=C(CO)[C@@H](O)[C@]2(O)[C@H]1OC(=O)N(C)c1ccccn1)[C@H]1[C@@H](C[C@H]3C)C1(C)C [Compound 724, Ingenol 3-(N-methyl-N-(2-pyridyl)-carbamate)] | – | 20 to 100 nM | – | – | > 350000 nM
CC1=C[C@]23C(=O)[C@@H](C=C(CO)[C@@H](O)[C@]2(O)[C@H]1OC(=O)N1CCCCCC1)[C@H]1[C@@H](C[C@H]3C)C1(C)C [Compound 728, Ingenol 3-(azepane-1-carboxylate)] | 20 to 100 nM | 20 to 100 nM | – | – | –
